Source: ChEMBL document CHEMBL2401706, “An atom economic synthesis and AChE inhibitory activity of novel dispiro 7-aryltetrahydro-1H-pyrrolo[1,2-c][1,3]thiazole and 4-aryloctahydroindolizine N-methylpiperidin-4-one hybrid heterocycles” (Eur J Med Chem, 2013)

Target: Acetylcholinesterase (Electrophorus electricus, UniProt O42275)
Assay: Inhibition of electric eel AChE after 30 mins by Ellman's method

Acetylcholinesterase, sequence (O42275 whole entry): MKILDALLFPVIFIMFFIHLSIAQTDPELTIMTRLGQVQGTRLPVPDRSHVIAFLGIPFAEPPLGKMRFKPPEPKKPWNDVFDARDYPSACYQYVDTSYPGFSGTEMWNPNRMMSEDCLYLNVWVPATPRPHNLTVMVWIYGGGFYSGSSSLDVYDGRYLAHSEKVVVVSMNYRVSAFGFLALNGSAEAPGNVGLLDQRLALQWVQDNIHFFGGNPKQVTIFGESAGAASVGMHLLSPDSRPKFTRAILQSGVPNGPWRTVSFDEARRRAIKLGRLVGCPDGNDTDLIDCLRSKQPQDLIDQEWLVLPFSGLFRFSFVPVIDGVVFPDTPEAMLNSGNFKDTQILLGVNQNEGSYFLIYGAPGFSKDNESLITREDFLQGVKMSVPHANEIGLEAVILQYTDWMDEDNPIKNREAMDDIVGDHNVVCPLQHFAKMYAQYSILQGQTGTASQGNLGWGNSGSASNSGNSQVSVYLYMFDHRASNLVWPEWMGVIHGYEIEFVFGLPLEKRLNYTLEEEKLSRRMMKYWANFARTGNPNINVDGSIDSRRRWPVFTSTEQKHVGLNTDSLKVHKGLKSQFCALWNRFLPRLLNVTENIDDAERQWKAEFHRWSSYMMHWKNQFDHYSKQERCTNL

In order of rising IC50:
1. Cc1ccc(/C=C2\CN(C)C[C@@]3(C2=O)[C@@H](c2ccc(C)cc2)[C@@H]2CSCN2[C@@]32C(=O)c3cccc4cccc2c34)cc1  1.86 µM
2. Cc1ccc(/C=C2\CN(C)C[C@@]3(C2=O)[C@@H](c2ccc(C)cc2)[C@@H]2CCCCN2[C@@]32C(=O)c3cccc4cccc2c34)cc1  2.24 µM
3. CN1C/C(=C\c2cccc3ccccc23)C(=O)[C@]2(C1)[C@@H](c1cccc3ccccc13)[C@@H]1CCCCN1[C@@]21C(=O)c2cccc3cccc1c23  3.34 µM
4. Cc1ccccc1/C=C1\CN(C)C[C@@]2(C1=O)[C@@H](c1ccccc1C)[C@@H]1CCCCN1[C@@]21C(=O)c2cccc3cccc1c23  3.86 µM
5. CN1C/C(=C\c2ccc([N+](=O)[O-])cc2)C(=O)[C@]2(C1)[C@@H](c1ccc([N+](=O)[O-])cc1)[C@@H]1CSCN1[C@@]21C(=O)c2cccc3cccc1c23  4.56 µM
6. Cc1ccccc1/C=C1\CN(C)C[C@@]2(C1=O)[C@@H](c1ccccc1C)[C@@H]1CSCN1[C@@]21C(=O)c2cccc3cccc1c23  6.28 µM
7. CN1C/C(=C\c2cccc([N+](=O)[O-])c2)C(=O)[C@]2(C1)[C@@H](c1cccc([N+](=O)[O-])c1)[C@@H]1CSCN1[C@@]21C(=O)c2cccc3cccc1c23  8.1 µM
8. CN1C/C(=C\c2ccc([N+](=O)[O-])cc2)C(=O)[C@]2(C1)[C@@H](c1ccc([N+](=O)[O-])cc1)[C@@H]1CCCCN1[C@@]21C(=O)c2cccc3cccc1c23  9.16 µM
9. CN1C/C(=C\c2cccc3ccccc23)C(=O)[C@]2(C1)[C@@H](c1cccc3ccccc13)[C@@H]1CSCN1[C@@]21C(=O)c2cccc3cccc1c23  9.48 µM
10. CN1C/C(=C\c2ccccc2Br)C(=O)[C@]2(C1)[C@@H](c1ccccc1Br)[C@@H]1CSCN1[C@@]21C(=O)c2cccc3cccc1c23  10.1 µM
11. CN1C/C(=C\c2ccc(Cl)cc2)C(=O)[C@]2(C1)[C@@H](c1ccc(Cl)cc1)[C@@H]1CSCN1[C@@]21C(=O)c2cccc3cccc1c23  11.1 µM
12. CN1C/C(=C\c2cccc(F)c2)C(=O)[C@]2(C1)[C@@H](c1cccc(F)c1)[C@@H]1CSCN1[C@@]21C(=O)c2cccc3cccc1c23  11.2 µM
13. COc1ccccc1/C=C1\CN(C)C[C@@]2(C1=O)[C@@H](c1ccccc1OC)[C@@H]1CCCCN1[C@@]21C(=O)c2cccc3cccc1c23  11.6 µM
14. CN1C/C(=C\c2ccc(Cl)cc2)C(=O)[C@]2(C1)[C@@H](c1ccc(Cl)cc1)[C@@H]1CCCCN1[C@@]21C(=O)c2cccc3cccc1c23  11.6 µM
15. CN1C/C(=C\c2ccccc2Cl)C(=O)[C@]2(C1)[C@@H](c1ccccc1Cl)[C@@H]1CSCN1[C@@]21C(=O)c2cccc3cccc1c23  12.2 µM
16. COc1ccc(/C=C2\CN(C)C[C@@]3(C2=O)[C@@H](c2ccc(OC)cc2)[C@@H]2CSCN2[C@@]32C(=O)c3cccc4cccc2c34)cc1  12.3 µM
17. CN1C/C(=C\c2ccccc2F)C(=O)[C@]2(C1)[C@@H](c1ccccc1F)[C@@H]1CSCN1[C@@]21C(=O)c2cccc3cccc1c23  12.6 µM
18. CN1C/C(=C\c2ccc(F)cc2)C(=O)[C@]2(C1)[C@@H](c1ccc(F)cc1)[C@@H]1CCCCN1[C@@]21C(=O)c2cccc3cccc1c23  12.6 µM
19. CN1C/C(=C\c2ccc(Br)cc2)C(=O)[C@]2(C1)[C@@H](c1ccc(Br)cc1)[C@@H]1CCCCN1[C@@]21C(=O)c2cccc3cccc1c23  14.1 µM
20. CN1C/C(=C\c2ccc(F)cc2)C(=O)[C@]2(C1)[C@@H](c1ccc(F)cc1)[C@@H]1CSCN1[C@@]21C(=O)c2cccc3cccc1c23  15.8 µM
21. CN1C/C(=C\c2ccccc2)C(=O)[C@]2(C1)[C@@H](c1ccccc1)[C@@H]1CSCN1[C@@]21C(=O)c2cccc3cccc1c23  16.5 µM
22. CN1C/C(=C\c2ccc(Cl)cc2Cl)C(=O)[C@]2(C1)[C@@H](c1ccc(Cl)cc1Cl)[C@@H]1CCCCN1[C@@]21C(=O)c2cccc3cccc1c23  17.3 µM
23. CN1C/C(=C\c2ccccc2)C(=O)[C@]2(C1)[C@@H](c1ccccc1)[C@@H]1CCCCN1[C@@]21C(=O)c2cccc3cccc1c23  18.3 µM
24. CN1C/C(=C\c2cccc(Cl)c2Cl)C(=O)[C@]2(C1)[C@@H](c1cccc(Cl)c1Cl)[C@@H]1CSCN1[C@@]21C(=O)c2cccc3cccc1c23  19.1 µM
25. CN1C/C(=C\c2ccc(Br)cc2)C(=O)[C@]2(C1)[C@@H](c1ccc(Br)cc1)[C@@H]1CSCN1[C@@]21C(=O)c2cccc3cccc1c23  20.3 µM
26. CN1C/C(=C\c2ccccc2Cl)C(=O)[C@]2(C1)[C@@H](c1ccccc1Cl)[C@@H]1CCCCN1[C@@]21C(=O)c2cccc3cccc1c23  21.3 µM
27. COc1ccc(/C=C2\CN(C)C[C@@]3(C2=O)[C@@H](c2ccc(OC)cc2)[C@@H]2CCCCN2[C@@]32C(=O)c3cccc4cccc2c34)cc1  22.3 µM
28. CN1C/C(=C\c2ccc(Cl)cc2Cl)C(=O)[C@]2(C1)[C@@H](c1ccc(Cl)cc1Cl)[C@@H]1CSCN1[C@@]21C(=O)c2cccc3cccc1c23  23.2 µM
29. CN1C/C(=C\c2cccc(Cl)c2Cl)C(=O)[C@]2(C1)[C@@H](c1cccc(Cl)c1Cl)[C@@H]1CCCCN1[C@@]21C(=O)c2cccc3cccc1c23  24.2 µM
30. CN1C/C(=C\c2cccc([N+](=O)[O-])c2)C(=O)[C@]2(C1)[C@@H](c1cccc([N+](=O)[O-])c1)[C@@H]1CCCCN1[C@@]21C(=O)c2cccc3cccc1c23  25.1 µM
31. CN1C/C(=C\c2cccc(F)c2)C(=O)[C@]2(C1)[C@@H](c1cccc(F)c1)[C@@H]1CCCCN1[C@@]21C(=O)c2cccc3cccc1c23  32.6 µM
32. CN1C/C(=C\c2ccccc2F)C(=O)[C@]2(C1)[C@@H](c1ccccc1F)[C@@H]1CCCCN1[C@@]21C(=O)c2cccc3cccc1c23  34.2 µM
33. CN1C/C(=C\c2ccccc2Br)C(=O)[C@]2(C1)[C@@H](c1ccccc1Br)[C@@H]1CCCCN1[C@@]21C(=O)c2cccc3cccc1c23  38.3 µM
